# Test results published in ChEMBL document CHEMBL5316381, “Discovery of [1,2,3]Triazolo[4,5-c]quinoline Derivatives as a New Class of Ataxia-Telangiectasia Mutated Kinase Inhibitors” (ACS Med Chem Lett, 2023).
# Active and inactive are the calls of the source. No cut-off for these calls is given here.
# How the values were obtained:
# HCT-116 [1] = experiment: Induction of apoptosis in human HCT-116 cells assessed as necrotic cells at 100 nM measured after 72 hrs in presence of CPT-11 by Annexin V-FITC staining based flow cytometric analysis (reference value: 2.41%); assay type: functional
# SW-620 [2] = experiment: Radiosensitizing activity against human SW620 cells assessed as reduction in colony formation at 9 nM incubated after 14 days in the presence of 3 Gy irradiation by crystal violet staining based analysis; assay type: functional, cell-based; conditions: time 14.0 day
# SW-620 [3] = experiment: Antiproliferative activity against human SW620 cells assessed as reduction in colony formation at 9 nM measured after 14 days by crystal violet staining based microscopic analysis; assay type: functional, cell-based; conditions: time 14.0 day
# SW-620 [4] = experiment: Induction of apoptosis in human SW620 cells assessed as late apoptotic cells at 30 nM measured after 72 hrs in presence of CPT-11 by Annexin V-FITC staining based flow cytometric analysis (reference value: 5.75%); assay type: functional
# HCT-116 [5] = experiment: Induction of apoptosis in human HCT-116 cells assessed as early apoptotic cells at 30 nM measured after 72 hrs in presence of CPT-11 by Annexin V-FITC staining based flow cytometric analysis (reference value: 4.06%); assay type: functional
# SW-620 [6] = experiment: Radiosensitizing activity against human SW620 cells assessed as reduction in colony formation at 27 nM incubated after 14 days in the presence of 1.5 Gy irradiation by crystal violet staining based analysis; assay type: functional, cell-based; conditions: time 14.0 day
# [7] = Toxicity in BALB/c mouse xenografted with human SW620 cells assessed as heart damage at 5 mg/kg, ip administered once daily and measured after 23 days by H&E staining based microscopic analysis; assay type: organism-based, SW-620; conditions: in vivo, 552 h, time 23 day
# SW-620 [8] = experiment: Anticancer activity against human SW620 cells assessed as reduction in cell viability by measuring fold change in CPT-11 IC50 at 100 nM incubated for 5 days by MTT assay relative irinotecan alone; assay type: functional; conditions: time 5 day
# [9] = molecular target: Serine-protein kinase ATM (Homo sapiens, UniProt Q13315); experiment: Inhibition of ATM phosphorylation in human SW620 cells with IR-induced DNA damage in the presence of 1.5 Gy irradiation by Western blot analysis; assay type: cell-based; conditions: dose 3-250 nM
# SW-620 [10] = experiment: Induction of apoptosis in human SW620 cells assessed as viable cells at 100 nM measured after 72 hrs in presence of CPT-11 by Annexin V-FITC staining based flow cytometric analysis (reference value: 87.36%); assay type: functional; conditions: read-out: Activity
# [11] = molecular target: Serine/threonine-protein kinase Chk2 (Homo sapiens) (UniProt O96017); experiment: Inhibition of Chk2 phosphorylation in human SW620 cells with IR-induced DNA damage in the presence of 1.5 Gy irradiation by Western blot analysis; assay type: cell-based; conditions: dose 3-250 nM
# [12] = molecular target: Serine/threonine-protein kinase Chk2 (Homo sapiens) (UniProt O96017); experiment: Inhibition of Chk2 phosphorylation in human SW620 cells with IR-induced DNA damage in the presence of 3 Gy irradiation by Western blot analysis; assay type: cell-based; conditions: dose 3-250 nM
# SW-620 [13] = experiment: Induction of apoptosis in human SW620 cells assessed as viable cells at 100 nM measured after 72 hrs by Annexin V-FITC staining based flow cytometric analysis (reference value: 87.36%); assay type: functional; conditions: read-out: Activity
# SW-620 [14] = experiment: Induction of apoptosis in human SW620 cells assessed as necrotic cells at 10 nM measured after 72 hrs in presence of CPT-11 by Annexin V-FITC staining based flow cytometric analysis (reference value: 5.83%); assay type: functional
# [15] = molecular target: Phosphatidylinositol 4,5-bisphosphate 3-kinase catalytic subunit gamma isoform (Homo sapiens, UniProt P48736); experiment: Inhibition of human PI3K p120 gamma using phosphatidylinositol-4, 5-bisphosphate as substrate incubated for 30 mins in the presence of Mg/ATP mix by HTRF-based analysis
# SW-620 [16] = experiment: In vivo inhibition of ATM in BALB/c mouse model xenografted with human SW620 cells assessed as inhibition of Chk2 phosphorylation at 5 mg/kg, ip administered once daily and measured after 23 days in the presence of CPT-11 by Western blot analysis; assay type: functional, organism-based; conditions: time 23.0 day
# PI3K p110 beta/p85 alpha = PI3K p110 beta/p85 alpha (Homo sapiens, UniProt P42338); experiment: Inhibition of human PI3K p110 beta/p85 alpha using phosphatidylinositol-4, 5-bisphosphate as substrate incubated for 30 mins in the presence of Mg/ATP mix by HTRF-based analysis; assay type: protein-complex assay
# SW-620 [17] = experiment: Radiosensitizing activity against human SW620 cells assessed as reduction in colony formation at 9 nM incubated after 14 days in the presence of 1.5 Gy irradiation by crystal violet staining based analysis; assay type: functional, cell-based; conditions: time 14.0 day
# HCT-116 [18] = experiment: Induction of apoptosis in human HCT-116 cells assessed as necrotic cells at 30 nM measured after 72 hrs in presence of CPT-11 by Annexin V-FITC staining based flow cytometric analysis (reference value: 2.41%); assay type: functional
# SW-620 [19] = experiment: Induction of apoptosis in human SW620 cells assessed as viable cells at 30 nM measured after 72 hrs in presence of CPT-11 by Annexin V-FITC staining based flow cytometric analysis (reference value: 87.36%); assay type: functional; conditions: read-out: Activity
# HCT-116 [20] = experiment: Induction of apoptosis in human HCT-116 cells assessed as viable cells at 30 nM measured after 72 hrs in presence of CPT-11 by Annexin V-FITC staining based flow cytometric analysis (reference value: 73.74%); assay type: functional; conditions: read-out: Activity
# [21] = Toxicity in BALB/c mouse xenografted with human SW620 cells assessed as lung damage at 5 mg/kg, ip administered once daily and measured after 23 days by H&E staining based microscopic analysis; assay type: organism-based, SW-620; conditions: in vivo, 552 h, time 23 day
# HCT-116 [22] = experiment: Induction of apoptosis in human HCT-116 cells assessed as late apoptotic cells at 100 nM measured after 72 hrs in presence of CPT-11 by Annexin V-FITC staining based flow cytometric analysis (reference value: 19.80%); assay type: functional
# SW-620 [23] = experiment: Induction of apoptosis in human SW620 cells assessed as early apoptotic cells at 30 nM measured after 72 hrs in presence of CPT-11 by Annexin V-FITC staining based flow cytometric analysis (reference value: 1.06%); assay type: functional
# HCT-116 [24] = experiment: Induction of apoptosis in human HCT-116 cells assessed as early apoptotic cells at 1 uM measured after 72 hrs by Annexin V-FITC staining based flow cytometric analysis (reference value: 4.06%); assay type: functional
# HCT-116 [25] = experiment: Induction of apoptosis in human HCT-116 cells assessed as late apoptotic cells at 100 nM measured after 72 hrs by Annexin V-FITC staining based flow cytometric analysis (reference value: 19.80%); assay type: functional
# HCT-116 [26] = experiment: Induction of apoptosis in human HCT-116 cells assessed as late apoptotic cells at 30 nM measured after 72 hrs in presence of CPT-11 by Annexin V-FITC staining based flow cytometric analysis (reference value: 19.80%); assay type: functional
# [27] = Toxicity in BALB/c mouse xenografted with human SW620 cells assessed as spleen damage at 5 mg/kg, ip administered once daily and measured after 23 days by H&E staining based microscopic analysis; assay type: organism-based, SW-620; conditions: in vivo, 552 h, time 23 day
# [28] = Toxicity in BALB/c mouse xenografted with human SW620 cells assessed as kidney damage at 5 mg/kg, ip administered once daily and measured after 23 days by H&E staining based microscopic analysis; assay type: organism-based, SW-620; conditions: in vivo, 552 h, time 23 day
# SW-620 [29] = experiment: Radiosensitizing activity against human SW620 cells assessed as reduction in colony formation at 27 nM incubated after 14 days in the presence of 3 Gy irradiation by crystal violet staining based analysis; assay type: functional, cell-based; conditions: time 14.0 day
# Sequence of Serine/threonine-protein kinase Chk2 (Homo sapiens) (O96017 whole entry): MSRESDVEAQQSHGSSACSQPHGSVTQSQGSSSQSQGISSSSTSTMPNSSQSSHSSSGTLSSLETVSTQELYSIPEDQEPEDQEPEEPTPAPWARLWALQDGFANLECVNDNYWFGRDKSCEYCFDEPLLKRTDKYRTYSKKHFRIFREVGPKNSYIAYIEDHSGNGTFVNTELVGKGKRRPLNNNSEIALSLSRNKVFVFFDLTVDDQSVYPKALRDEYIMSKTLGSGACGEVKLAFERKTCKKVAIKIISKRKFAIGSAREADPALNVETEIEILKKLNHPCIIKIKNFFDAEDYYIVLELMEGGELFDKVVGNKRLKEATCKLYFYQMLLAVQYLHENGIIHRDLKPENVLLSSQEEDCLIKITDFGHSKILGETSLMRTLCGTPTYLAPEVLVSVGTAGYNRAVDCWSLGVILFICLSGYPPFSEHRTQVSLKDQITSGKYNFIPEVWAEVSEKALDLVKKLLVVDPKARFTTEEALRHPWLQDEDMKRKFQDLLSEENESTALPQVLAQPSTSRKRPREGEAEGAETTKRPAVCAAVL
# Sequence of Phosphatidylinositol 4,5-bisphosphate 3-kinase catalytic subunit gamma isoform (P48736 whole entry, canonical isoform): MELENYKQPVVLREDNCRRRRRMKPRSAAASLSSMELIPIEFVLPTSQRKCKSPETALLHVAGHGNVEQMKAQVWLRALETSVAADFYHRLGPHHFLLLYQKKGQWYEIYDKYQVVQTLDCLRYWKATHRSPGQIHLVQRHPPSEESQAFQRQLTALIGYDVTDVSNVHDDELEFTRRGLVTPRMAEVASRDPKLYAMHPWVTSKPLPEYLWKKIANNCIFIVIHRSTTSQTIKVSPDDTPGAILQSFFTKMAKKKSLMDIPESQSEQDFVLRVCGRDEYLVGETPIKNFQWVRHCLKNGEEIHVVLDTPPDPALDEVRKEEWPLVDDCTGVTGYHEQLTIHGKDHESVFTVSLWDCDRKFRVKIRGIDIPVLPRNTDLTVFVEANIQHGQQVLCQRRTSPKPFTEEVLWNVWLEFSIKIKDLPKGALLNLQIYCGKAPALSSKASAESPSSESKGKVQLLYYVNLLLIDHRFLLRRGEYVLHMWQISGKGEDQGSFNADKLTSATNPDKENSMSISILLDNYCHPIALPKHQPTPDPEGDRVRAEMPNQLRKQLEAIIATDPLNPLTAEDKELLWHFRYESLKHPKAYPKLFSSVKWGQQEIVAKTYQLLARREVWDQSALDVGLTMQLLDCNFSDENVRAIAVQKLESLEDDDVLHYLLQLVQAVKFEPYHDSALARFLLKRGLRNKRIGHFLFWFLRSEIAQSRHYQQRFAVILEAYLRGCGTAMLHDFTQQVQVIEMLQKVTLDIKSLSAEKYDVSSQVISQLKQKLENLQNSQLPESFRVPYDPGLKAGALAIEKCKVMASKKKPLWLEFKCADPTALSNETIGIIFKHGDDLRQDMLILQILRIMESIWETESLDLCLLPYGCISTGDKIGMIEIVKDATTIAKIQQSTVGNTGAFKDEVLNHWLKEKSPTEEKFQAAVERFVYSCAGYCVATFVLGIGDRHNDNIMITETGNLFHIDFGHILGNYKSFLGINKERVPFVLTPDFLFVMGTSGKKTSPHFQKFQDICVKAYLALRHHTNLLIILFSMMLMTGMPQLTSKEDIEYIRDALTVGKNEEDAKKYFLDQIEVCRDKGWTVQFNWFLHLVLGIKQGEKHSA
# Sequence of PI3K p110 beta/p85 alpha (P27986 whole entry): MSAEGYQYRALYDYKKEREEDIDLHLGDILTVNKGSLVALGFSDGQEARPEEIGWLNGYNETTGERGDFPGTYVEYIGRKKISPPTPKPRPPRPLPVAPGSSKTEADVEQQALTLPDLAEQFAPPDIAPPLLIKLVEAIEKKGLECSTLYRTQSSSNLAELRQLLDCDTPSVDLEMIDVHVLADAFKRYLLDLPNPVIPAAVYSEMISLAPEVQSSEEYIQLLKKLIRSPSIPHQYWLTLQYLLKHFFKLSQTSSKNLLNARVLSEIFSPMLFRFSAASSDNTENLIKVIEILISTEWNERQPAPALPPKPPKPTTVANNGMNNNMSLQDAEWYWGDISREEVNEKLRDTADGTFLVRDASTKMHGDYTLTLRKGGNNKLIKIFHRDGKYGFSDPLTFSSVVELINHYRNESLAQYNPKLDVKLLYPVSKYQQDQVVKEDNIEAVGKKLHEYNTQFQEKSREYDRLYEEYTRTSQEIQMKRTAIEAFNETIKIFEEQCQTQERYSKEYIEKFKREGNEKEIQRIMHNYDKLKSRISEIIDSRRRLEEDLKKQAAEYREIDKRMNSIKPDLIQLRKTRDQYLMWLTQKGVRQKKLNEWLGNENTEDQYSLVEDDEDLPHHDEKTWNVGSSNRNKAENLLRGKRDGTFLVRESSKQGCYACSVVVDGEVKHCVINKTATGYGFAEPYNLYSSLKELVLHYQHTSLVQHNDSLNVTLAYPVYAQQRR
# Sequence of PI3K p110 beta/p85 alpha (P42338 whole entry): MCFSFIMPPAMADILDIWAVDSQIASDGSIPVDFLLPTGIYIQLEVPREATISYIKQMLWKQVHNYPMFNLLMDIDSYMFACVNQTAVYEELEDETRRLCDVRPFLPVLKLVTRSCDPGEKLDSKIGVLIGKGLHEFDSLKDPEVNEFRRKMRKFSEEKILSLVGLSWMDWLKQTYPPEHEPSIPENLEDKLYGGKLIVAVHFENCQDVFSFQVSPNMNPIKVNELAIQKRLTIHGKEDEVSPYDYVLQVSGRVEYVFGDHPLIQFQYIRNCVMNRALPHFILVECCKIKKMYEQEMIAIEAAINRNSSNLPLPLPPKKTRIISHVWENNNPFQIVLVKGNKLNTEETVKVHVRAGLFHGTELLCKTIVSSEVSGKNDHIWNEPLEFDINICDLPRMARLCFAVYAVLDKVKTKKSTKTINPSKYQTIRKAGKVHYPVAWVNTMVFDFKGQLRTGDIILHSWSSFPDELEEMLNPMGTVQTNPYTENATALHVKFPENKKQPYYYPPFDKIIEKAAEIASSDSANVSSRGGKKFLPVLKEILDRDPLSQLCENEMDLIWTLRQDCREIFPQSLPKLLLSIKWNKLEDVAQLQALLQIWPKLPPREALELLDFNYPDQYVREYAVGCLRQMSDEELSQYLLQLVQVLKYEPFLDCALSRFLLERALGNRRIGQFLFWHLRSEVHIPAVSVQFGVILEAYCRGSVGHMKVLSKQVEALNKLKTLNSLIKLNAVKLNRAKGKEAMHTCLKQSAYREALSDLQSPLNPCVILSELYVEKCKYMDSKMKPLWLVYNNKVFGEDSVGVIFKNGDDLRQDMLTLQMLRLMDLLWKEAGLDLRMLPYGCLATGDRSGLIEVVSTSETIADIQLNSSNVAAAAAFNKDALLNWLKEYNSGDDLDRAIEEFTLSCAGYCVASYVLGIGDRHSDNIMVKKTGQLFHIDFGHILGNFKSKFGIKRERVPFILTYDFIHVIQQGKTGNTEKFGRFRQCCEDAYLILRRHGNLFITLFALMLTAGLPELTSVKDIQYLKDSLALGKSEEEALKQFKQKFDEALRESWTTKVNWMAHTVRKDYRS
compound,measurement,setting,value
C[C@H](c1ccccc1)n1nnc2cnc3ccc(-c4ccc(OCCCN(C)C)nc4)cc3c21,Activity,HCT-116 [1],7.04%
same,Activity,SW-620 [2],Active
same,Activity,SW-620 [3],inactive
same,Activity,SW-620 [4],44%
same,Activity,HCT-116 [5],2.23%
same,Activity,SW-620 [6],Active
same,Activity,[7],Non-Toxic
same,fold change (FC),SW-620 [8],4.4
same,inhibition,[9],Dose-Dependent Effect
same,viability at 0.1 µM,SW-620 [10],30.5%
same,inhibition,[11],Dose-Dependent Effect
same,inhibition,[12],Dose-Dependent Effect
same,viability at 0.1 µM,SW-620 [13],80.2%
same,Activity,SW-620 [14],5.94%
same,IC50,[15],> 10 µM
same,inhibition,SW-620 [16],Active
same,IC50,PI3K p110 beta/p85 alpha,1.85 µM
same,Activity,SW-620 [17],Active
same,Activity,HCT-116 [18],8.39%
same,viability at 0.03 µM,SW-620 [19],47.2%
same,viability at 0.03 µM,HCT-116 [20],25.7%
same,Activity,[21],Non-Toxic
same,Activity,HCT-116 [22],68.15%
same,Activity,SW-620 [23],6.95%
same,Activity,HCT-116 [24],1.34%
same,Activity,HCT-116 [25],14.21%
same,Activity,HCT-116 [26],63.63%
same,Activity,[27],Non-Toxic
same,Activity,[28],Non-Toxic
same,Activity,SW-620 [29],Active
